Source: patent US20260139254A1, “INTERFERING RNA FOR INHIBITING TOP1 GENE EXPRESSION AND USE THEREOF” (JENKEM TECHNOLOGY CO., LTD. (BEIJING), priority 2022, published 2026)

How the values were obtained:
Format in all cases: cell-based, human
A375 melanoma cells = test: Inhibition of A375 cell proliferation by siTOP1 (CCK-8); conditions: A375, siRNA 50 nM, 72 h
Method: • 1) On the day before transfection, A375 melanoma cells were seeded into a 96-well plate at 2500-3000 cells/well, the culture medium being a total volume of 200 μL of DMEM culture medium containing 7.5% FBS and 1% Penicillin-Streptomycin, and the plate was placed in an incubator with 5% CO2 at 37° C. for 24 h to allow the cells to adhere to the wall. 5 replicate wells were made for each group. • 2) On the day of transfection, the culture medium was changed to 90 μL of reduced serum culture medium without antibiotics and containing 7.5% FBS. • 3) The siRNAs were diluted with an appropriate amount of Opti-MEM culture medium; Lipofectamine™ RNAiMAX (Lipo) transfection reagent was diluted with another appropriate amount of Opti-MEM culture medium and left to stand at room temperature for 5 min; and the two dilutions were uniformly mixed and left to stand at room temperature for 5 min. • 4) 10 μL of the mixed solution described above was added to each well to obtain a final transfection volume of 100 μL, and the working concentration of the siRNA was 50 nM. • 5) The cells were cultured in the incubator with 5% CO2 at 37° C. for 72 h.
After 72 h of transfection, 10 μL of CCK-8 solution was added to each well, and the cells were cultured in the incubator with 5% CO2 at 37° C. for another 4 h. The absorbance value at 450 nm was measured using a microplate reader. Cell viability was calculated according to the following formula: […]

TOP1 mRNA [1] = test: Dose-dependence of siTOP1-1604 on TOP1 mRNA in PC-3 cells (qPCR); conditions: for Relative expression level of TOP1, mean value: 24 h, siNC = 100.00
Method: (§1) A transfection system was prepared as follows on the day of transfection: siTOP1-1604 was diluted with an appropriate amount of Opti-MEM culture medium; Lipofectamine™ RNAiMAX (Lipo) transfection reagent was diluted with another appropriate amount of Opti-MEM culture medium and left to stand at room temperature for 5 min; and the two dilutions were uniformly mixed, left to stand at room temperature for 5 min, and then added to 24-well cell culture plates at 50 μL/well. PC-3 human prostate cancer cells were added to one of the 24-well cell culture plates at 4×10^5 cells/well, the culture medium being 450 μL of F12K containing 10% FBS; HCT116 human colon cancer cells were added to the other of the 24-well cell culture plates at 3.5×10^5 cells/well, the culture medium being 450 μL of IMDM containing 10% FBS. The cells were uniformly mixed with the siRNA. The final transfection volume was 500 μL, and the working concentrations of the siRNA were 10, 1.67, 0.27, 0.046, 0.0077, 0.0013, and 0.00021 nM. The control groups were Blank (Opti-MEM at the equal volume), Lipofectamine™ RNAiMAX (Lipo) transfection reagent, as well as 10 nM of siNC.
(§2) After 24 h of transfection, the cells were collected. The total cellular RNA was extracted according to the method in Example 2, and the level of TOP1 mRNA was detected. […] Nonlinear fitting was performed on the qPCR results using Graphpad software and IC50 of siTOP1 was calculated.

TOP1 mRNA [2] = test: Dose-dependence of siTOP1-1604 on TOP1 mRNA in HCT116 cells (qPCR); conditions: for Relative expression level of TOP1, mean value: 24 h, siNC = 100.00
Method: as §1, §2

## siTOP1-1604: siRNA targeting TOP1; target SEQ ID NO: 9, sense strand SEQ ID NO: 24, antisense strand SEQ ID NO: 39 (sense GUGUGGACAAGAUCCGGAAUU; antisense UUCCGGAUCUUGUCCACACUU; described as unmodified parent siRNA, further chemistry not given here)
A375 melanoma cells
  Cell viability (%), mean value: 41.65%
  Inhibition of A375 cell proliferation compared to Blank: about 58%
TOP1 mRNA [1]; PC-3, 0.00021 nM
  Relative expression level of TOP1, mean value: 125.48
TOP1 mRNA [1]; PC-3, 0.0013 nM
  Relative expression level of TOP1, mean value: 96.21
TOP1 mRNA [1]; PC-3, 0.0077 nM
  Relative expression level of TOP1, mean value: 122.71
TOP1 mRNA [1]; PC-3, 0.046 nM
  Relative expression level of TOP1, mean value: 47.64
TOP1 mRNA [1]; PC-3, 0.27 nM
  Relative expression level of TOP1, mean value: 24.94
TOP1 mRNA [1]; PC-3, 1.67 nM
  Relative expression level of TOP1, mean value: 21.05
TOP1 mRNA [1]; PC-3, 10 nM
  Relative expression level of TOP1, mean value: 19.66
TOP1 mRNA [1]; PC-3, 24 h, relative to siNC, nonlinear fit of qPCR results
  IC50: 0.075 nM
TOP1 mRNA [2]; HCT116, 0.00021 nM
  Relative expression level of TOP1, mean value: 73.06
TOP1 mRNA [2]; HCT116, 0.0013 nM
  Relative expression level of TOP1, mean value: 74.72
TOP1 mRNA [2]; HCT116, 0.0077 nM
  Relative expression level of TOP1, mean value: 54.01
TOP1 mRNA [2]; HCT116, 0.046 nM
  Relative expression level of TOP1, mean value: 17.23
TOP1 mRNA [2]; HCT116, 0.27 nM
  Relative expression level of TOP1, mean value: 7.57
TOP1 mRNA [2]; HCT116, 1.67 nM
  Relative expression level of TOP1, mean value: 7.91
TOP1 mRNA [2]; HCT116, 10 nM
  Relative expression level of TOP1, mean value: 3.98
TOP1 mRNA [2]; HCT116, 24 h, relative to siNC, nonlinear fit of qPCR results
  IC50: 0.006 nM
